Like-named read-outs stand apart in the source and are kept apart here.
Legend:
[1] = pKa and Log D7.4 determination; assay type: physicochemical
Experimental: The ionization constant (pKa), octanol-pH 7.4 buffer partition coefficient (Log D7.4), solubility in biorelevant buffers (FaSSIF-V2, FeSSIF-V2, FaSSGF and pH 7.4 phosphate buffered saline (PBS)) and Caco-2 permeability were determined according to previously published methods ([10]).

[2] = Compartmental PK modelling and repeat-dose simulation; set-up: species or system mice; conditions: for AUC: read-out: AUC24 ss
Experimental: To support pharmacokinetic/pharmacodynamic (PKPD) analysis, data in mice and hamsters were also analyzed by compartmental modeling using Phoenix WinNonlin (version 8.2; Certara, Princeton, NJ). For each dose level, an extravascular dosing, single compartment disposition model was fit to the combined Day 1/Day 5 repeat dose plasma data. The model was parameterized with a single volume term (V/F), and with first order absorption (K01) and elimination (K10) rate constants. Initial values for the parameter estimates were obtained by fitting of the model to the Day 1 data at the lowest dose level only, and the same initial values were used across the dose range. Experimental data used in model fitting were the mean concentration-time profiles and the average dose administered to each group. The weighting scheme (1/Y2 for mouse and 1/Y for hamster) was selected based on goodness of fit of the peak region of the experimental profiles. Parameter estimates obtained through fitting were used to simulate full repeat-dose plasma concentration-time profiles with both once-daily and twice-daily (dosing at […]) administration at each dose level and treatment duration used in the efficacy studies.

[3] = In vitro cytotoxicity assay; assay type: cell-based; conditions: human, U2OS human osteosarcoma cells
BCRP = BCRP (Homo sapiens, UniProt Q9UNQ0); assay: Drug transporter inhibition panel; assay type: in vitro ADME; conditions: 1 and 10 μM
Source text: (§1) Listed values represent the percent change relative to the DMSO control activity. When an IC50 had to be determined, eight different concentrations were included. All values are the mean of assay readout duplicates.

BSEP = BSEP (Homo sapiens, UniProt O95342); assay: Drug transporter inhibition panel; assay type: in vitro ADME; conditions: 1 and 10 μM
Source text: as §1

MATE2-K = target: T1, MATE2-K (Homo sapiens, UniProt Q86VL8); assay: Drug transporter inhibition panel; assay type: in vitro ADME
T1 construct: Eurofins
Source text: as §1

OAT1 = target: T2, OAT1 (Homo sapiens, UniProt Q4U2R8); assay: Drug transporter inhibition panel; assay type: in vitro ADME; conditions: 1 and 10 μM
T2 construct: Eurofins
Source text: as §1

OAT3 = target: T3, OAT3 (Homo sapiens, UniProt Q8TCC7); assay: Drug transporter inhibition panel; assay type: in vitro ADME; conditions: 1 and 10 μM
T3 construct: Eurofins
Source text: as §1

OATP1B1 = target: T4, OATP1B1 (Homo sapiens, UniProt Q9Y6L6); assay: Drug transporter inhibition panel; assay type: in vitro ADME
T4 construct: Eurofins
Source text: as §1

OATP1B3 = target: T5, OATP1B3 (Homo sapiens, UniProt Q9NPD5); assay: Drug transporter inhibition panel; assay type: in vitro ADME
T5 construct: Eurofins
Source text: as §1

OCT1 = target: T6, OCT1 (Homo sapiens, UniProt O15245); assay: Drug transporter inhibition panel; assay type: in vitro ADME; conditions: 1 and 10 μM
T6 construct: Eurofins
Source text: as §1

OCT2 = target: T7, OCT2 (Homo sapiens, UniProt O15244); assay: Drug transporter inhibition panel; assay type: in vitro ADME; conditions: 1 and 10 μM
T7 construct: Eurofins
Source text: as §1

[4] = mice, 3.125 mg/kg bid, 10 days, simulated
[5] = mice, 12.5 mg/kg bid, 5 days, simulated
[6] = mice, 12.5 mg/kg qd, 5 days, simulated
[7] = mice, 25 mg/kg bid, 5 days, simulated
[8] = mice, 25 mg/kg qd, 5 days, simulated
[9] = mouse, plasma, po, 3.125 mg/kg, mice, 3.125 mg/kg bid, 10 days, simulated
[10] = mouse, plasma, po, 12.5 mg/kg, mice, 12.5 mg/kg bid, 5 days, simulated
[11] = mouse, plasma, po, 12.5 mg/kg, mice, 12.5 mg/kg qd, 5 days, simulated
[12] = mouse, plasma, po, 25 mg/kg, mice, 25 mg/kg qd, 5 days, simulated
[13] = mouse, plasma, po, Mice, 3.6 mg/kg, fitted
[14] = mouse, plasma, po, Mice, 7.1 mg/kg, fitted
[15] = mouse, plasma, po, Mice, 12.7 mg/kg, fitted
[16] = mouse, plasma, po, Mice, 25 mg/kg, fitted

T5 sequence (Q9NPD5 whole entry): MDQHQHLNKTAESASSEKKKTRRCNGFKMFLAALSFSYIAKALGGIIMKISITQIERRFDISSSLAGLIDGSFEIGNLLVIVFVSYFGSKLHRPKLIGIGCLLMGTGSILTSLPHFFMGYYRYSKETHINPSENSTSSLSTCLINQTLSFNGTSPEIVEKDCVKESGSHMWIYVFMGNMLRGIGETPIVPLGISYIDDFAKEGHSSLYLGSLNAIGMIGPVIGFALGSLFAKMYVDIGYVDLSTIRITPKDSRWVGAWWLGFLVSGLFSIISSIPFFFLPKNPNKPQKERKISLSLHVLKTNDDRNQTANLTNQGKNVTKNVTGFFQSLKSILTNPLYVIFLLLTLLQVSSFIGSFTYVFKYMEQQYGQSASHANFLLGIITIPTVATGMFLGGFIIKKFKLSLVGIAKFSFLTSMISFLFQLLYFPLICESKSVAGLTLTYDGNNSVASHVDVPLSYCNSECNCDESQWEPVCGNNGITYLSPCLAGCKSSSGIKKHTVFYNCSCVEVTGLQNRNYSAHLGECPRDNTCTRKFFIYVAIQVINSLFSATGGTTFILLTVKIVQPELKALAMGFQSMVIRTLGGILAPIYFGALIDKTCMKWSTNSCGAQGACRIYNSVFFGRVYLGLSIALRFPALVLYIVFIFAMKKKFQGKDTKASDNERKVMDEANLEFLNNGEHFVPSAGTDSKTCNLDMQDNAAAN
T3 sequence (Q8TCC7 whole entry): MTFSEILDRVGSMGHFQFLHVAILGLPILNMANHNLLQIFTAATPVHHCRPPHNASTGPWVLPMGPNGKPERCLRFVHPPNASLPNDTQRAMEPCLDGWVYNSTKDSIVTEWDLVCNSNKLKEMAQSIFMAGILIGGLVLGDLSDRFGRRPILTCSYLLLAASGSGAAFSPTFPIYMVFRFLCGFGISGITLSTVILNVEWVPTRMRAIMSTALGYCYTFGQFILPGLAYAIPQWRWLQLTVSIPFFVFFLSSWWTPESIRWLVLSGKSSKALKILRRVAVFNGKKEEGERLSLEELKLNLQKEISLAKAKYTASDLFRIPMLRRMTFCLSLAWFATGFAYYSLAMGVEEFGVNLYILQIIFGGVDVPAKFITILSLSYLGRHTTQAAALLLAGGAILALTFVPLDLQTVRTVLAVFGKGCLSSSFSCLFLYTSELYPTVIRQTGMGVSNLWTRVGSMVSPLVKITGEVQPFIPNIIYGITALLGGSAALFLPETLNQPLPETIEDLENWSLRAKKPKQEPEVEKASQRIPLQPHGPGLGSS
Chain of BCRP (Q9UNQ0 whole entry, species assumed): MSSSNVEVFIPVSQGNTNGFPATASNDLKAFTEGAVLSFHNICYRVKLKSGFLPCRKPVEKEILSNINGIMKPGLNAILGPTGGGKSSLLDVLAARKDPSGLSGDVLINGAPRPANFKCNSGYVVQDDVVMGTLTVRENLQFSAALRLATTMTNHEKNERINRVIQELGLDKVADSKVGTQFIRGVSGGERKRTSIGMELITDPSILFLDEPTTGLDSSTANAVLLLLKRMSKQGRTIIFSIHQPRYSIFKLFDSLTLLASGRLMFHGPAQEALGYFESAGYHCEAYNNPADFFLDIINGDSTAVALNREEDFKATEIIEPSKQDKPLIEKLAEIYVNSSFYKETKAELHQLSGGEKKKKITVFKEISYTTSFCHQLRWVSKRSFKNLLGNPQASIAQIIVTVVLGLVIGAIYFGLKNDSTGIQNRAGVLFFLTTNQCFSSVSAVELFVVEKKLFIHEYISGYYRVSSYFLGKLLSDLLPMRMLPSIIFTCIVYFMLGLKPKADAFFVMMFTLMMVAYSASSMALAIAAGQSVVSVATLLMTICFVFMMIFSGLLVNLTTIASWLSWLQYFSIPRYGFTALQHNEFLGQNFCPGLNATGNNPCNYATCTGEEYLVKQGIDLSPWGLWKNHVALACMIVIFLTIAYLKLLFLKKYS
T4 sequence (Q9Y6L6 whole entry): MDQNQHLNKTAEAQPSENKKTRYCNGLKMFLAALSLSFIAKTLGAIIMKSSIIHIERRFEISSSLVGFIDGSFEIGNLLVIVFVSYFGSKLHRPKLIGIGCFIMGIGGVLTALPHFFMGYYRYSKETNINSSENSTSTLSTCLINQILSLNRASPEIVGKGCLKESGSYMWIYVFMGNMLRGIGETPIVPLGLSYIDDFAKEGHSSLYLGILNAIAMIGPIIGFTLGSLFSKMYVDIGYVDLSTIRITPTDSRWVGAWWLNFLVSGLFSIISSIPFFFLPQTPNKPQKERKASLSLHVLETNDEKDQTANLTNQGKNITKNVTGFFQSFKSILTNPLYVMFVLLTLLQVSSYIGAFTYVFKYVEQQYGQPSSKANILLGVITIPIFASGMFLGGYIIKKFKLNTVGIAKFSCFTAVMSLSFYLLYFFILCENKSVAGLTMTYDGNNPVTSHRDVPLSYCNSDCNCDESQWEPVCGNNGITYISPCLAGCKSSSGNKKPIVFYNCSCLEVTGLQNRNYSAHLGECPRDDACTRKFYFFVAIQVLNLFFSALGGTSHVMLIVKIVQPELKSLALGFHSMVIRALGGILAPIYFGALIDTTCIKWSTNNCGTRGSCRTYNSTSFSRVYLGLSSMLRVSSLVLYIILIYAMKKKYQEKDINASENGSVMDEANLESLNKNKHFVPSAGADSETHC
Chain of BSEP (O95342 whole entry, species assumed): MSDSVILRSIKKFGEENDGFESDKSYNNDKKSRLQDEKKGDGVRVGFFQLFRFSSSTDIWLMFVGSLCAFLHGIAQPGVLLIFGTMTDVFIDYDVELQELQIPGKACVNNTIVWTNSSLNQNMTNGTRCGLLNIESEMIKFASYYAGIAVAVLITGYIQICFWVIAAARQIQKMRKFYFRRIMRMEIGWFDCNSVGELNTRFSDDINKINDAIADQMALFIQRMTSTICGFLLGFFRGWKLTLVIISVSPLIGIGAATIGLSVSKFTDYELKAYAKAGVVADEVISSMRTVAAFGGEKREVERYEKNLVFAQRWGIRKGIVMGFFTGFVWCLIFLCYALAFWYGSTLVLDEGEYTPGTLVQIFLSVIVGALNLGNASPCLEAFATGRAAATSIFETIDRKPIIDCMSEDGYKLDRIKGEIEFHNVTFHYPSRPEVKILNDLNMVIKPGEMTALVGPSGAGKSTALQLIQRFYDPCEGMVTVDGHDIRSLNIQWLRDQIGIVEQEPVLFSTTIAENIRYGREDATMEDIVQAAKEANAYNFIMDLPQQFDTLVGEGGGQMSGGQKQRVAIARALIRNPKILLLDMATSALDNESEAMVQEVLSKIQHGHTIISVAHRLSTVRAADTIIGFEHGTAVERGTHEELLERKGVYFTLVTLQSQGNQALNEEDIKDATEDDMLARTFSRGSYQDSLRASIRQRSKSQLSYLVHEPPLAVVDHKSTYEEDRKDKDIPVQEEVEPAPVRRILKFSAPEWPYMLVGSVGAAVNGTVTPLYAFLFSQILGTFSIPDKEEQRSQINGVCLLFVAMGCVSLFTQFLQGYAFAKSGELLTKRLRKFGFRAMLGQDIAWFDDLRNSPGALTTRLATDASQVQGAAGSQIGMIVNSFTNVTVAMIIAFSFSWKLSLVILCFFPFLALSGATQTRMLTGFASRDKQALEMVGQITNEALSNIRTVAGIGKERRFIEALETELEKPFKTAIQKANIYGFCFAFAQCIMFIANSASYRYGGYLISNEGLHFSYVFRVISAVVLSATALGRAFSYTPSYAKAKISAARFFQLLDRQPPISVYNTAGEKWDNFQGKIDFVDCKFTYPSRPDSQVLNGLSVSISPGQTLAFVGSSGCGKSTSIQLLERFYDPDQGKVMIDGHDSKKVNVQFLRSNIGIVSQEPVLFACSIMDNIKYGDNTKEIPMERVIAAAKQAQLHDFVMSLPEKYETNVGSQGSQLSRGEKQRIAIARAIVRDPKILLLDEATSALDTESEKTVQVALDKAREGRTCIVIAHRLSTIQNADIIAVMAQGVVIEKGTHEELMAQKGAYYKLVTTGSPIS
T2 sequence (Q4U2R8 whole entry): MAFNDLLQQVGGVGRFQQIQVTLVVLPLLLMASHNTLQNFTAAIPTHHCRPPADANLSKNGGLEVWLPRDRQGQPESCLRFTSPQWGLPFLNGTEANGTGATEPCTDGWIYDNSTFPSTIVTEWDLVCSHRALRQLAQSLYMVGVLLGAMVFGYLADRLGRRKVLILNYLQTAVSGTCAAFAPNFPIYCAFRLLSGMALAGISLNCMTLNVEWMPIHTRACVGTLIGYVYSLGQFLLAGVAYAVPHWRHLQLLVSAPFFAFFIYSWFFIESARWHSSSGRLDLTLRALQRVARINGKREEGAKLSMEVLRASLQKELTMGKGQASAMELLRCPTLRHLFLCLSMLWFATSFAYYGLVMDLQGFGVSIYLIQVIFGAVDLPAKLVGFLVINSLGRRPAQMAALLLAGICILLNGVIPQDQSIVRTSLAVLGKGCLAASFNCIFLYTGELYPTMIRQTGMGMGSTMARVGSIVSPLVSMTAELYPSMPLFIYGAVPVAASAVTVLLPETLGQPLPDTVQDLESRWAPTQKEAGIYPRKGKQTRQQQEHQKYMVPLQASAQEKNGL
T1 sequence (Q86VL8 1-566 isoform Q86VL8-3): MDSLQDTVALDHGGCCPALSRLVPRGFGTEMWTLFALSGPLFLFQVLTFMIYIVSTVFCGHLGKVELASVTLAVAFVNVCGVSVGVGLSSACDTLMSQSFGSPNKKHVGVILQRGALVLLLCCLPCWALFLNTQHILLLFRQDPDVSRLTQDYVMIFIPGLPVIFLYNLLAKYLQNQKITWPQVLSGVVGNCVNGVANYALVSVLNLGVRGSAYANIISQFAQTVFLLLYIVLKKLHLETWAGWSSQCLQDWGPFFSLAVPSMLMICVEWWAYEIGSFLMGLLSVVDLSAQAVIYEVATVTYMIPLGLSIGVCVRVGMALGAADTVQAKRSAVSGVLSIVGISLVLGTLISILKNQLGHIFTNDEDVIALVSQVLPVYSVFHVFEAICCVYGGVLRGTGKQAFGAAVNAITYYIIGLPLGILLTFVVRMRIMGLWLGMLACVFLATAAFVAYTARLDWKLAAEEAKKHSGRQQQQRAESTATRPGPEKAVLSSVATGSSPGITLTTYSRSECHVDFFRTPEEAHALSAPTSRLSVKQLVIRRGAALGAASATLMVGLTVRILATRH

Cc1[nH]c2nc(N)nc(C)c2c1-c1ccc(C#N)c2c1OCO2 [DNDI-6174]
pKa (measured) [1]: 5.58
Log D7.4 (measured) ([1]; octanol-pH 7.4 buffer): 2.57
logD ([1]; octanol/pH 7.4 buffer, pH 7.4, octanol-pH 7.4 buffer, read-out: Log D7.4 (measured)): 2.6
pKa ([1]; read-out: pKa (measured)): 5.6
K01 ([2]; Mice, 3.6 mg/kg, fitted): 1.04 h⁻¹
K10 ([2]; Mice, 3.6 mg/kg, fitted): 0.270 h⁻¹
V/F ([2]; Mice, 3.6 mg/kg, fitted): 2.76 L/kg
K01 ([2]; Mice, 7.1 mg/kg, fitted): 0.833 h⁻¹
K10 ([2]; Mice, 7.1 mg/kg, fitted): 0.246 h⁻¹
V/F ([2]; Mice, 7.1 mg/kg, fitted): 1.95 L/kg
K01 ([2]; Mice, 12.7 mg/kg, fitted): 0.634 h⁻¹
K10 ([2]; Mice, 12.7 mg/kg, fitted): 0.213 h⁻¹
V/F ([2]; Mice, 12.7 mg/kg, fitted): 1.43 L/kg
K01 ([2]; Mice, 25 mg/kg, fitted): 3.00 h⁻¹
K10 ([2]; Mice, 25 mg/kg, fitted): 0.158 h⁻¹
V/F ([2]; Mice, 25 mg/kg, fitted): 2.40 L/kg
AUC24 ss (unbound) [2, 4]: 1010 ng·h/mL
Cav ss [2, 4]: 351 ng/mL
Cav ss (unbound) [2, 4]: 42 ng/mL
Cmax (unbound) [2, 4]: 98 ng/mL
Cmin [2, 4]: 23 ng/mL
Cmin (unbound) [2, 4]: 3 ng/mL
Cum AUC (unbound) [2, 4]: 10100 ng·h/mL
AUC24 ss [2, 5]: 82000 ng·h/mL
AUC24 ss (unbound) [2, 5]: 9840 ng·h/mL
Cav ss [2, 5]: 3420 ng/mL
Cav ss (unbound) [2, 5]: 410 ng/mL
Cmax (unbound) [2, 5]: 780 ng/mL
Cmin [2, 5]: 520 ng/mL
Cmin (unbound) [2, 5]: 62 ng/mL
Cum AUC [2, 5]: 410000 ng·h/mL
Cum AUC (unbound) [2, 5]: 49200 ng·h/mL
AUC24 ss (unbound) [2, 6]: 4920 ng·h/mL
Cav ss [2, 6]: 1710 ng/mL
Cav ss (unbound) [2, 6]: 205 ng/mL
Cmax (unbound) [2, 6]: 608 ng/mL
Cmin [2, 6]: 80 ng/mL
Cmin (unbound) [2, 6]: 10 ng/mL
Cum AUC (unbound) [2, 6]: 24600 ng·h/mL
AUC24 ss (unbound) [2, 7]: 15800 ng·h/mL
Cav ss [2, 7]: 5470 ng/mL
Cav ss (unbound) [2, 7]: 657 ng/mL
Cmax [2, 7]: 11700 ng/mL
Cmax (unbound) [2, 7]: 1410 ng/mL
Cmin [2, 7]: 1140 ng/mL
Cmin (unbound) [2, 7]: 137 ng/mL
Cum AUC [2, 7]: 657000 ng·h/mL
Cum AUC (unbound) [2, 7]: 78800 ng·h/mL
AUC24 ss (unbound) [2, 8]: 7880 ng·h/mL
Cav ss [2, 8]: 2740 ng/mL
Cav ss (unbound) [2, 8]: 328 ng/mL
Cmax (unbound) [2, 8]: 1080 ng/mL
Cmin [2, 8]: 251 ng/mL
Cmin (unbound) [2, 8]: 30 ng/mL
Cum AUC (unbound) [2, 8]: 39400 ng·h/mL
Cmax at 10 days [2, 9]: 820 ng/mL
AUC [2, 9]: 8410 ng·h/mL
AUC at 10 days ([2]; mouse, plasma, po, 3.125 mg/kg, mice, 3.125 mg/kg bid, 10 days, simulated, read-out: Cum AUC): 84100 ng·h/mL
Cmax ([2]; mouse, plasma, po, 3.6 mg/kg, Mice, 3.6 mg/kg, fitted, read-out: Cmax): 813 ng/mL
Cmax ([2]; mouse, plasma, po, 7.1 mg/kg, Mice, 7.1 mg/kg, fitted, read-out: Cmax): 2190 ng/mL
Cmax at 5 days [2, 10]: 6500 ng/mL
AUC [2, 10]: 82000 ng·h/mL
AUC at 5 days ([2]; mouse, plasma, po, 12.5 mg/kg, mice, 12.5 mg/kg bid, 5 days, simulated, read-out: Cum AUC): 410000 ng·h/mL
Cmax at 5 days [2, 11]: 5070 ng/mL
AUC [2, 11]: 41000 ng·h/mL
AUC at 5 days ([2]; mouse, plasma, po, 12.5 mg/kg, mice, 12.5 mg/kg qd, 5 days, simulated, read-out: Cum AUC): 205000 ng·h/mL
Cmax ([2]; mouse, plasma, po, 12.7 mg/kg, Mice, 12.7 mg/kg, fitted, read-out: Cmax): 5100 ng/mL
Cmax ([2]; mouse, plasma, po, 25 mg/kg, Mice, 25 mg/kg, fitted, read-out: Cmax): 8830 ng/mL
Cmax at 5 days ([2]; mouse, plasma, po, 25 mg/kg, mice, 25 mg/kg bid, 5 days, simulated): 11700 ng/mL
AUC at 5 days ([2]; mouse, plasma, po, 25 mg/kg, mice, 25 mg/kg bid, 5 days, simulated, read-out: Cum AUC): 657000 ng·h/mL
Cmax at 5 days [2, 12]: 9030 ng/mL
AUC [2, 12]: 65700 ng·h/mL
AUC at 5 days ([2]; mouse, plasma, po, 25 mg/kg, mice, 25 mg/kg qd, 5 days, simulated, read-out: Cum AUC): 328000 ng·h/mL
AUC(0-inf) [2, 13]: 4840 ng·h/mL
CL/F [2, 13]: 12.4 mL/min/kg
AUC(0-inf) [2, 14]: 14800 ng·h/mL
CL/F [2, 14]: 7.98 mL/min/kg
AUC(0-inf) [2, 15]: 41700 ng·h/mL
CL/F [2, 15]: 5.08 mL/min/kg
AUC(0-inf) [2, 16]: 65700 ng·h/mL
CL/F [2, 16]: 6.35 mL/min/kg
CC50 [3]: > 80 µM
activity remaining (BCRP): > 50%
activity remaining (BSEP): > 50%
IC50 (MATE2-K): 0.88 µM
activity remaining (OAT1): > 50%
activity remaining (OAT3): > 50%
IC50 (OATP1B1): 22 µM
IC50 (OATP1B3): 16 µM
activity remaining (OCT1): > 50%
activity remaining (OCT2): > 50%
